Data: patent publication US10499642B2, “Isoxazoline-substituted benzamides and analogues as insecticides” (SYNGENTA PARTICIPATIONS AG, priority 2015, dated 2019)

How the values were obtained:
Assay type in all cases: in vivo
[1] = system: Spodoptera littoralis; test: Spodoptera littoralis (Egyptian cotton leaf worm) cotton leaf disc test; conditions: foliar, 72 h, read-out: control (at least one of mortality, anti-feedant effect, and growth inhibition)
How it was run: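 Five first-instar larvae per disc were placed on dried, sprayed cotton leaf discs held on agar. Test solutions were aqueous, made from 10′000 ppm DMSO stocks. At day 3, control was counted when mortality, feeding deterrence or growth inhibition exceeded the untreated discs.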

[2] = system: Tetranychus urticae; test: Tetranychus urticae (two-spotted spider mite) bean leaf disc test; conditions: foliar, 192 h
Description: Tetranychus urticae (Two-Spotted Spider Mite):
Bean leaf discs on agar in 24-well microtiter plates were sprayed with aqueous test solutions prepared from 10′000 ppm DMSO stock solutions. After drying the leaf discs were infested with a mite population of mixed ages. The samples were assessed for mortality on mixed population (mobile stages) 8 days after infestation.

[3] = system: Diabrotica Balteata; test: Diabrotica balteata (corn root worm) maize sprout test; conditions: 96 h, read-out: effect in at least one of the two categories (mortality or growth inhibition)
How it was run: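 Scoring covered both mortality and growth inhibition relative to untreated controls, 4 days post-infestation. Test solutions at 200 ppm, diluted in water from 10′000 ppm DMSO stocks, were sprayed onto agar-held maize sprouts, which after drying received 6 to 10 L2 larvae each well.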

[4] = system: Myzus persicae; test: Myzus persicae (green peach aphid) sunflower leaf disc test; conditions: foliar, 144 h
Description: Myzus persicae (Green Peach Aphid):
Sunflower leaf discs were placed on agar in a 24-well microtiter plate and sprayed with test solutions at an application rate of 200 ppm. After drying, the leaf discs were infested with an aphid population of mixed ages. After an incubation period of 6 days after treatment, samples were checked for mortality. The following compounds gave at least 80% mortality of Myzus persicae: […]

[5] = system: Thrips tabaci; test: Thrips tabaci (onion thrips) sunflower leaf disc test; conditions: foliar, 144 h
Description: Thrips tabaci (Onion Thrips):
Sunflower leaf discs were placed on agar in 24-well microtiter plates and sprayed with aqueous test solutions prepared from 10′000 ppm DMSO stock solutions. After drying the leaf discs were infested with a thrips population of mixed ages. The samples were assessed for mortality 6 days after infestation.

[6] = system: Plutella xylostella; test: Plutella xylostella (diamond back moth) artificial diet test; conditions: 120 h, read-out: effect in at least one of the two categories (mortality or growth inhibition)
How it was run: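 At a 200 ppm rate, test solutions were applied to artificial diet and allowed to dry before second-instar larvae were added. Five days later, larval mortality and growth inhibition were rated against untreated samples.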

Cc1cc(C2=NO[C@@](c3cc(Cl)c(F)c(Cl)c3)(C(F)(F)F)C2)ccc1C(=O)NC1CC(OCC(F)(F)C(F)F)=NO1 (stereo partly drawn) [Compound A101]
≥ 80%: percent control (mortality, anti-feedant effect or growth inhibition) at 200 ppm [1] | mortality at 200 ppm [2] | percent effect (mortality or growth inhibition) at 200 ppm [3] | mortality at 200 ppm [4] | mortality at 200 ppm [5] | percent effect (mortality or growth inhibition) at 200 ppm [6]

CCOC1=NO[C@H](NC(=O)c2ccc(C3=NO[C@@](c4cc(Cl)cc(Cl)c4)(C(F)(F)F)C3)cc2C)C1 (single isomer, unassigned) [Compound A158]
≥ 80%: percent control (mortality, anti-feedant effect or growth inhibition) at 200 ppm [1] | mortality at 200 ppm [2] | percent effect (mortality or growth inhibition) at 200 ppm [3] | mortality at 200 ppm [4] | mortality at 200 ppm [5] | percent effect (mortality or growth inhibition) at 200 ppm [6]

Cc1cc(C2=NO[C@@](c3cc(Cl)c(F)c(Cl)c3)(C(F)(F)F)C2)ccc1C(=O)NC1CC(OCC(F)(F)C(F)C(F)(F)F)=NO1 (stereo partly drawn) [Compound A075]
≥ 80%: percent control (mortality, anti-feedant effect or growth inhibition) at 200 ppm [1] | mortality at 200 ppm [2] | percent effect (mortality or growth inhibition) at 200 ppm [3] | mortality at 200 ppm [4] | mortality at 200 ppm [5] | percent effect (mortality or growth inhibition) at 200 ppm [6]

Cc1cc(C2=NO[C@@](c3cc(Cl)c(F)c(Cl)c3)(C(F)(F)F)C2)ccc1C(=O)N(C=O)C1CC(Cl)=NO1 (stereo partly drawn) [Compound A011, N-(3-chloro-4,5-dihydroisoxazol-5-yl)-4-[(5S)-5-(3,5-dichloro-4-fluoro-phenyl)-5-(trifluoromethyl)-4H-isoxazol-3-yl]-N-formyl-2-methyl-benzamide]
≥ 80%: percent control (mortality, anti-feedant effect or growth inhibition) at 200 ppm [1] | mortality at 200 ppm [2] | percent effect (mortality or growth inhibition) at 200 ppm [3] | mortality at 200 ppm [4] | mortality at 200 ppm [5] | percent effect (mortality or growth inhibition) at 200 ppm [6]

Cc1cc(C2=NO[C@@](c3cc(Cl)c(F)c(Cl)c3)(C(F)(F)F)C2)ccc1C(=O)NC1CC=NO1 (stereo partly drawn) [Compound A091]
≥ 80%: percent control (mortality, anti-feedant effect or growth inhibition) at 200 ppm [1] | mortality at 200 ppm [2] | percent effect (mortality or growth inhibition) at 200 ppm [3] | mortality at 200 ppm [4] | mortality at 200 ppm [5] | percent effect (mortality or growth inhibition) at 200 ppm [6]

CCNC(=O)COC1=NOC(NC(=O)c2ccc(C3=NO[C@@](c4cc(Cl)c(Cl)c(Cl)c4)(C(F)(F)F)C3)cc2C)C1 (stereo partly drawn) [Compound A115, N-[3-[2-(ethylamino)-2-oxo-ethoxy]-4,5-dihydroisoxazol-5-yl]-2-methyl-4-[(5S)-5-(3,4,5-trichlorophenyl)-5-(trifluoromethyl)-4H-isoxazol-3-yl]benzamide]
≥ 80%: percent control (mortality, anti-feedant effect or growth inhibition) at 200 ppm [1] | mortality at 200 ppm [2] | percent effect (mortality or growth inhibition) at 200 ppm [3] | mortality at 200 ppm [4] | mortality at 200 ppm [5] | percent effect (mortality or growth inhibition) at 200 ppm [6]

C=C(Cl)COC1=NOC(NC(=O)c2ccc(C3=NO[C@@](c4cc(Cl)c(F)c(Cl)c4)(C(F)(F)F)C3)cc2C)C1 (stereo partly drawn) [Compound A100, N-[3-(2-chloroallyloxy)-4,5-dihydroisoxazol-5-yl]-4-[(5S)-5-(3,5-dichloro-4-fluoro-phenyl)-5-(trifluoromethyl)-4H-isoxazol-3-yl]-2-methyl-benzamide]
≥ 80%: percent control (mortality, anti-feedant effect or growth inhibition) at 200 ppm [1] | mortality at 200 ppm [2] | percent effect (mortality or growth inhibition) at 200 ppm [3] | mortality at 200 ppm [4] | mortality at 200 ppm [5] | percent effect (mortality or growth inhibition) at 200 ppm [6]

Cc1cc(C2=NO[C@@](c3cc(Cl)c(Cl)c(Cl)c3)(C(F)(F)F)C2)ccc1C(=O)NC1CC(OCC2(C)COC2)=NO1 (stereo partly drawn) [Compound A123, 2-methyl-N-[3-[(3-methyloxetan-3-yl)methoxy]-4,5-dihydroisoxazol-5-yl]-4-[(5S)-5-(3,4,5-trichlorophenyl)-5-(trifluoromethyl)-4H-isoxazol-3-yl]benzamide]
≥ 80%: percent control (mortality, anti-feedant effect or growth inhibition) at 200 ppm [1] | mortality at 200 ppm [2] | percent effect (mortality or growth inhibition) at 200 ppm [3] | mortality at 200 ppm [4] | mortality at 200 ppm [5] | percent effect (mortality or growth inhibition) at 200 ppm [6]

Cc1cc(C2=NO[C@@](c3cc(Cl)c(Cl)c(Cl)c3)(C(F)(F)F)C2)ccc1C(=O)NC1CC(C#N)=NO1 (stereo partly drawn) [Compound A145, N-(3-cyano-4,5-dihydroisoxazol-5-yl)-2-methyl-4-[(5S)-5-(3,4,5-trichlorophenyl)-5-(trifluoromethyl)-4H-isoxazol-3-yl]benzamide]
≥ 80%: percent control (mortality, anti-feedant effect or growth inhibition) at 200 ppm [1] | mortality at 200 ppm [2] | percent effect (mortality or growth inhibition) at 200 ppm [3] | mortality at 200 ppm [4] | mortality at 200 ppm [5] | percent effect (mortality or growth inhibition) at 200 ppm [6]

CC1=NOC(N(C=O)C(=O)c2ccc(C3=NO[C@@](c4cc(Cl)c(F)c(Cl)c4)(C(F)(F)F)C3)cc2C)C1 (stereo partly drawn) [Compound A008, 4-[(5S)-5-(3,5-dichloro-4-fluoro-phenyl)-5-(trifluoromethyl)-4H-isoxazol-3-yl]-N-formyl-2-methyl-N-(3-methyl-4,5-dihydroisoxazol-5-yl)benzamide]
≥ 80%: percent control (mortality, anti-feedant effect or growth inhibition) at 200 ppm [1] | mortality at 200 ppm [2] | percent effect (mortality or growth inhibition) at 200 ppm [3] | mortality at 200 ppm [4] | mortality at 200 ppm [5] | percent effect (mortality or growth inhibition) at 200 ppm [6]

Cc1cc(C2=NO[C@@](c3cc(Cl)cc(Cl)c3)(C(F)(F)F)C2)ccc1C(=O)N[C@H]1CC(C(F)(F)F)=NO1 (single isomer, unassigned) [Compound A155]
≥ 80%: percent control (mortality, anti-feedant effect or growth inhibition) at 200 ppm [1] | mortality at 200 ppm [2] | percent effect (mortality or growth inhibition) at 200 ppm [3] | mortality at 200 ppm [4] | mortality at 200 ppm [5] | percent effect (mortality or growth inhibition) at 200 ppm [6]

CC(=O)C1=NOC(N(C=O)C(=O)c2ccc(C3=NO[C@@](c4cc(Cl)c(F)c(Cl)c4)(C(F)(F)F)C3)cc2C)C1 (stereo partly drawn) [Compound A014, N-(3-acetyl-4,5-dihydroisoxazol-5-yl)-4-[(5S)-5-(3,5-dichloro-4-fluoro-phenyl)-5-(trifluoromethyl)-4H-isoxazol-3-yl]-N-formyl-2-methyl-benzamide]
≥ 80%: percent control (mortality, anti-feedant effect or growth inhibition) at 200 ppm [1] | mortality at 200 ppm [2] | percent effect (mortality or growth inhibition) at 200 ppm [3] | mortality at 200 ppm [4] | mortality at 200 ppm [5] | percent effect (mortality or growth inhibition) at 200 ppm [6]
